Test results from patent US20150250902A1, “pH-RESPONSIVE GADOLINIUM NANOPARTICLE CONJUGATES AND USES THEREOF” (Colorado School of Mines, priority 2014, published 2015).

Experiment: In vitro MRI relaxivity of gold/Gd nanoparticles and clinical contrast agents
Source text: In vitro MRI of Gadolinium Nanoparticles and Polymer Modified Gadolinium Nanoparticles. In order to provide information about the clinical imaging viability of the polymer modified gold/Gd nanoparticles as a positive contrast agent, in vitro MRI was employed to determine relaxation properties of the unmodified and polymer modified gold/Gd nanoparticles. Table 1 compares the MRI longitudinal and transverse relaxivities, r1 and r2, respectively, of PNIPAM-modified gold/Gd nanoparticles and gold/Gd unmodified nanoparticles to the clinically employed contrasts agents, gadopentetate dimeglumine (Magnevist®) and gadobenate dimeglumine (Multihance®). […] By taking advantage of these properties, novel theragnostic polymer-modified gold/Gd nanoparticles could be produced and exploited as contrast agents for conventional T1 MR imaging.

SMILES	r1 (MRI longitudinal relaxivity)
CNC[C@H](O)[C@@H](O)[C@H](O)[C@H](O)CO.CNC[C@H](O)[C@@H](O)[C@H](O)[C@H](O)CO.O=C([O-])CN(CCN(CC(=O)[O-])CC(=O)O)CCN(CC(=O)[O-])CC(=O)O.[Gd+3] [Magnevist ®, gadopentetate dimeglumine]	6.95 mM⁻¹ s⁻¹
CNC[C@H](O)[C@@H](O)[C@H](O)[C@H](O)CO.CNC[C@H](O)[C@@H](O)[C@H](O)[C@H](O)CO.O=C([O-])CN(CCN(CC(=O)[O-])CC(=O)O)CCN(CC(=O)O)C(COCc1ccccc1)C(=O)[O-].[Gd+3] (centres unmarked) [Multihance ®, gadobenate dimeglumine]	17.7 mM⁻¹ s⁻¹
